Results on 23 molecules are retold here after patent US8865894B2, “Oxazolidin-2-one compounds and uses thereof” (Novartis AG, priority 2012, dated 2014).

T1 sequence (P42338 whole entry): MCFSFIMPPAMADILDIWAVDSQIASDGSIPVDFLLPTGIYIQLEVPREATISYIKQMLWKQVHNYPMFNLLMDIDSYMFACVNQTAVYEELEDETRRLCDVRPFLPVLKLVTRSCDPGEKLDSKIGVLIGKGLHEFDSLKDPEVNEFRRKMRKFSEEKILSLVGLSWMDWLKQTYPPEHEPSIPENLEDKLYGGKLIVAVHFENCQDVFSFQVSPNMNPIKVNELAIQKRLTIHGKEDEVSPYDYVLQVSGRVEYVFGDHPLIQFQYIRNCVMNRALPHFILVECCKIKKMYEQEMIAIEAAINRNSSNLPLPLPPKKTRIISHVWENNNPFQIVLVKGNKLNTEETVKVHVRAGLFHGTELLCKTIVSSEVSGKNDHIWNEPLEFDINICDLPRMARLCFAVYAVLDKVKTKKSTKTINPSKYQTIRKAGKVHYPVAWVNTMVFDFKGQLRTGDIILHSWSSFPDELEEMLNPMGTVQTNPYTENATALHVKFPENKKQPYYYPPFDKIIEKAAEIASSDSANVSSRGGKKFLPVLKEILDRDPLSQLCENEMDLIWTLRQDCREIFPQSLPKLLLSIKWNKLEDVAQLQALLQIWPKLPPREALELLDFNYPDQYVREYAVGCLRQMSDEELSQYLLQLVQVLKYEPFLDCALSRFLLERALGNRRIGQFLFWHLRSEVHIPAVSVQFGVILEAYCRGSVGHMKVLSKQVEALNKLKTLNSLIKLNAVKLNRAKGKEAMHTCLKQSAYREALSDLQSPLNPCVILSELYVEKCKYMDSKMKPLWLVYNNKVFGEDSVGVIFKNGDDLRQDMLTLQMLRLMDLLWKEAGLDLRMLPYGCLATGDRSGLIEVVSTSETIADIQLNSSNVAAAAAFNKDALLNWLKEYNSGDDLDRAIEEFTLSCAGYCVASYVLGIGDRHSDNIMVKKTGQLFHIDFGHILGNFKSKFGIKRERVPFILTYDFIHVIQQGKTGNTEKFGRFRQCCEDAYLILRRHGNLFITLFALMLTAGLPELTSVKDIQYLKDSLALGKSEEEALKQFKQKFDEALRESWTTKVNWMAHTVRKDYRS
T1 sequence (Q63787 whole entry partner): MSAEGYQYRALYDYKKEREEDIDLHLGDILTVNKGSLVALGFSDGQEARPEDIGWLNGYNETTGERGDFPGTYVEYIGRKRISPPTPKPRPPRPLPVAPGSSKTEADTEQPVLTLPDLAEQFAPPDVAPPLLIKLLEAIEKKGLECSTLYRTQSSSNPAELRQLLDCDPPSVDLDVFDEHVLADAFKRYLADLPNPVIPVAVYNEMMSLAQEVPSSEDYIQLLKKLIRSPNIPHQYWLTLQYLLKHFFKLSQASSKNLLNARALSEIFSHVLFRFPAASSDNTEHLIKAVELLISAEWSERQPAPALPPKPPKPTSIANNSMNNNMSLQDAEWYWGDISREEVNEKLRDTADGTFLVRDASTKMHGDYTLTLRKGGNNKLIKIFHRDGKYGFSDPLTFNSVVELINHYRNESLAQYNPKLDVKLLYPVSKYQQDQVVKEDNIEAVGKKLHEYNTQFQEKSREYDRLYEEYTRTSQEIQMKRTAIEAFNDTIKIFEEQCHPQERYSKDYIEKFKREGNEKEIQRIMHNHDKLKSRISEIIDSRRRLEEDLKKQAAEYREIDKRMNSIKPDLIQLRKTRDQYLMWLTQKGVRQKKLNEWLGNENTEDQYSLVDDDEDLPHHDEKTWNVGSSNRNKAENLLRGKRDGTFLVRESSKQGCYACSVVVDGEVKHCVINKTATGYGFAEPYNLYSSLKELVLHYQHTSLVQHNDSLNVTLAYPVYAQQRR

The first test addresses T1, human PI3Kbeta p110 catalytic subunit (Rat-1 pBABEpuro Myr-HA-hp110 beta) (Homo sapiens, UniProt P42338).
T1 construct: Myr (myristoylation signal) (N); HA (N); expressed in transfected cells; host or cells: Rat-1
In words: Cellular assay PI3Kbeta (p-Akt(S473) SureFire, Rat-1_PI3beta cells). Type of test: cell-based. As to conditions: fourth measurement, outlier; read-out: Rat1-PI3Kb IC50, fourth measurement (footnote). An excerpt:
AlphaScreen (Amplified Luminescent Proximity Homogeneous Assay, ALPHA, Perkin Elmer) is a non-radioactive bead-based proximity assay technology to study biomolecular interactions in a homogenous microtiter plate format. The brand name SureFire denotes AlphaScreen assays that are adapted to quantify the phosphorylation of endogenous cellular proteins in cell lysates, by using matched antibody pairs, which consist of an anti-phospho-kinase and an anti-kinase antibody. The assay allows characterization of kinase signaling in cells as well as measurement of kinase inhibitor effects. The AlphaScreen technology provides several advantages over standard assay techniques such as ELISA, as it avoids time-consuming washing procedures and reduces plate handling. Furthermore, it is miniaturizable at least to a 384-well format and provides sensitivity down to the femtomolar range, dependent on the affinity of the antibodies included in the individual AlphaScreen SureFire assay kit. High sensitivity is reached by an intrinsic amplification mechanism, which involves production of singlet oxygen molecules. SureFire assay kits are commercially available for specific targets and include pairs of validated antibodies (PerkinElmer). This report describes common procedures applied for AlphaScreen SureFire assays and respective semi-automated steps for routine kinase inhibitor profiling in cell-based assays.
The Rat-1 cell lines stably overexpressing activated PI3K class I isoforms Rat-1 pBABEpuro Myr-HA-hp110 delta (Rat-1_PI3Kdelta) and Rat-1 pBABEpuro Myr-HA-hp110alpha (Rat-1_PI3Kalpha) and Rat-1 pBABEpuro Myr-HA-hp110 beta (Rat-1_PI3beta) were prepared as described (Maira S M, Stauffer F, Brueggen J, Furet P, Schnell C, Fritsch C, Brachmann S, Chène P, de Pover A, Schoemaker K, Fabbro D, Gabriel D, Simonen M, Murphy L, Finan P, Sellers W, García-Echeverría C (2008), Mol Cancer Ther. 7:1851-63 and Maira S M, Pecchi S, Brueggen J, Huh K, Schnell C, Fritsch C, Nagel T, Wiesmann M, Brachmann S, Dorsch M, Chène P, Schoemaker K, De Pover A, Menezes D, Fabbro D, Sellers W, García-Echeverría C, Voliva C F (2011), Mol. Cancer Ther., accepted). All cell lines were cultivated in complete growth medium (DMEM high glucose, 10% (v/v) fetal bovine serum, 1% (v/v) MEM NEAA, 10 mM HEPES, 2 mM L-glutamine, puromycin (10 μg/mL for Rat-1_PI3Kdelta and Rat-1_PI3Kalpha, 4 ug/mL for Rat-1_PI3beta), 1% (v/v) Pen/Strep) to 90% confluency at 37° C./5% CO2/90% humidity in a humidified CO2 incubator and were split twice a week.
The following materials were used for p-AKT(S473) detection in Rat-1 cell lysates: Dulbecco's modified Eagle's medium (DMEM) high glucose (Gibco Invitrogen, Basel, Switzerland, Cat. No. 41965), Heat Inactivated Fetal Bovine Serum, Qualified (HI FBS; Gibco Invitrogen, Basel, Switzerland, Lot. No. 16140), MEM non essential amino acids (NEAA; Gibco Invitrogen, Basel, Switzerland, Cat. No. 11140), HEPES (Gibco Invitrogen, Basel, Switzerland, Cat. No. 15630), Penicillin/Streptomycin (Pen/Strep, 100×; Gibco Invitrogen, Basel, Switzerland, Cat. No. 15140-122), L-Glutamine (Gibco Invitrogen, Basel, Switzerland, Cat. No. 25030), Puromycin (Sigma Aldrich, Buchs, Switzerland, Cat. No. P9620), DMSO (MERCK, Dietikon, Switzerland, Cat. No. 8.02912.2500), H2O, MilliQ-H2O unless otherwise stated (MILLIPORE QGARDOOR1, Millipore, Zug, Switzerland), Bovine serum albumine (BSA; Sigma Aldrich, Buchs, Switzerland Cat. No. A8412), SureFire p-Akt 1/2 (Ser473) Assay Kit (PerkinElmer, Schwerzenbach, Switzerland, Cat. No. TGRAS50K).
The p-Akt(S473) SureFire assay measures the phosphorylation of endogenous cellular Akt 1/2 at Ser473 in cell lysates. Using Rat-1 cells stably expressing myr-HA-tagged versions of the human PI3Kdelta, PI3Kalpha, or PI3Kbeta p110 catalytic subunit isoforms, the assay was developed as a two-plate protocol in a 384-well format.
Take `C[C@H]1COC(=O)N1c1cc(-c2cnc(N)nc2C(F)(F)F)nc(N2CCOCC2)n1` [Example 1, (S)-3-(2′-Amino-2-morpholin-4-yl-4′-trifluoromethyl-[4,5′]bipyrimidinyl-6-yl)-4-methyl-oxazolidin-2-one]: the IC50 was determined as 3900 nM.

Still in this test, the particulars now being: p-Akt(S473), 1 h compound treatment; read-out: Rat1-PI3Kb/ IC50.
Turning to `C[C@H]1C(CC(C)(C)O)OC(=O)N1c1cc(-c2cnc(N)nc2C(F)(F)F)nc(N2CCOCC2)n1` (mixture of isomers) [Example 26, (4S,5R)- and (4S,5S)-3-(2′-amino-2-morpholino-4′-(trifluoromethyl)-[4,5′-bipyrimidin]-6-yl)-5-(2-hydroxy-2-methylpropyl)-4-methyloxazolidin-2-one], the IC50 turned out to be 75 nM.

For the molecule `CC1(CO)COC(=O)N1c1cc(-c2cnc(N)nc2C(F)(F)F)nc(N2CCOCC2)n1` (racemic) [Example 3, 3-(2′-amino-2-morpholino-4′-(trifluoromethyl)-4,5′-bipyrimidin-6-yl)-4-(hydroxymethyl)-4-methyloxazolidin-2-one], the IC50 worked out at 193 nM.

Regarding `Nc1ncc(-c2cc(N3C(=O)O[C@@H]4[C@@H](O)CC[C@@H]43)nc(N3CCOCC3)n2)c(C(F)(F)F)n1` (racemic) [Example 22, (3aR*,6R*,6aR*)-3-(2′-Amino-2-morpholino-4′-(trifluoromethyl)-[4,5′-bipyrimidin]-6-yl)-6-hydroxyhexahydro-2H-cyclopenta[d]oxazol-2-one], the IC50 was 77 nM.

As for `Nc1ncc(-c2cc(N3C(=O)OC4C(O)CCC43)nc(N3CCOCC3)n2)c(C(F)(F)F)n1` (single isomer, unassigned) [Example 22A], the IC50 stood at 60 nM.

As for `Nc1ncc(-c2cc(N3C(=O)OC4C(O)CCC43)nc(N3CCOCC3)n2)c(C(F)(F)F)n1` (single isomer, unassigned) [Example 22B], the IC50 came out at 125 nM.

As for `C[C@@H](O)C[C@H]1OC(=O)N(c2cc(-c3cnc(N)nc3C(F)(F)F)nc(N3CCOCC3)n2)[C@H]1C` (single isomer, unassigned) [Example 24], the IC50 was 34 nM.

For the molecule `C[C@H](O)CC1OC(=O)N(c2cc(-c3cnc(N)nc3C(F)(F)F)nc(N3CCOCC3)n2)[C@H]1C` (single isomer, unassigned) [Example 25], the IC50 is 43 nM.

Regarding `C[C@H]1COC(=O)N1c1cc(-c2cnc(N)nc2C(F)(F)F)nc(N2CCOCC2)n1` [Example 1, (S)-3-(2′-Amino-2-morpholin-4-yl-4′-trifluoromethyl-[4,5′]bipyrimidinyl-6-yl)-4-methyl-oxazolidin-2-one], the IC50 was found to be 65 nM.

With `CC1(C)OC(=O)N(c2cc(-c3cnc(N)nc3C(F)(F)F)nc(N3CCOCC3)n2)[C@H]1CO` [Example 2, (S)-3-(2′-Amino-2-morpholin-4-yl-4′-trifluoromethyl-[4,5′]bipyrimidinyl-6-yl)-4-hydroxymethyl-5,5-dimethyl-oxazolidin-2-one], the IC50 was determined as 278 nM.

Take `Nc1ncc(-c2cc(N3C(=O)O[C@H]4CCCC[C@@H]43)nc(N3CCOCC3)n2)c(C(F)(F)F)n1` [Example 4, (3aS,7aS)-3-(2′-Amino-2-morpholin-4-yl-4′-trifluoromethyl-[4,5′]bipyrimidinyl-6-yl)-hexahydro-benzooxazol-2-one]: the IC50 came out at 183 nM.

As to `COC[C@H]1COC(=O)N1c1cc(-c2cnc(N)nc2C(F)(F)F)nc(N2CCOCC2)n1` [Example 5, (S)-3-(2′-Amino-2-morpholin-4-yl-4′-trifluoromethyl-[4,5′]bipyrimidinyl-6-yl)-4-methoxymethyl-oxazolidin-2-one], the IC50 was found to be 314 nM.

As for `C[C@@H]1OC(=O)N(c2cc(-c3cnc(N)nc3C(F)(F)F)nc(N3CCOCC3)n2)[C@H]1CO` [Example 6], the IC50 worked out at 147 nM.

In the case of `[2H]C1([2H])OC([2H])([2H])C([2H])([2H])N(c2nc(-c3cnc(N)nc3C(F)(F)F)cc(N3C(=O)O[C@H](C)[C@@H]3CO)n2)C1([2H])[2H]` [Example 8], the IC50 came out at 108 nM.

In the case of `Nc1ncc(-c2cc(N3C(=O)OC[C@@H]3CCO)nc(N3CCOCC3)n2)c(C(F)(F)F)n1` [Example 9, (S)-3-(2′-Amino-2-morpholin-4-yl-4′-trifluoromethyl-[4,5′]bipyrimidinyl-6-yl)-4-(2-hydroxy-ethyl)-oxazolidin-2-one], the IC50 turned out to be 226 nM.

With `C[C@H]1OC(=O)N(c2cc(-c3cnc(N)nc3C(F)(F)F)nc(N3CCOC[C@@H]3C)n2)[C@H]1CO` [Example 10, (4S,5R)-3-[2′-Amino-2-((S)-3-methyl-morpholin-4-yl)-4′-trifluoromethyl-[4,5′]bipyrimidinyl-6-yl]-4-hydroxymethyl-5-methyl-oxazolidin-2-one], the IC50 is 173 nM.

For `Nc1ncc(-c2cc(N3CCOC3=O)nc(N3CCOCC3)n2)c(C(F)(F)F)n1` [Example 11, 3-(2′-Amino-2-morpholin-4-yl-4′-trifluoromethyl-[4,5′]bipyrimidinyl-6-yl)-oxazolidin-2-one, reference compound], the IC50 came to 184 nM.

Turning to `C[C@H]1OC(=O)N(c2cc(-c3cnc(N)nc3C(F)(F)F)nc(N3CCOCC3)n2)[C@H]1COC=O` [Example 12, Formic acid (4S,5R)-3-(2′-amino-2-morpholin-4-yl-4′-trifluoromethyl-[4,5′]bipyrimidinyl-6-yl)-5-methyl-2-oxo-oxazolidin-4-ylmethyl ester], the IC50 came out at 123 nM.

As for `C[C@H]1COCCN1c1nc(-c2cnc(N)nc2C(F)(F)F)cc(N2C(=O)OC[C@@H]2C)n1` [Example 13, (S)-3-[2′-Amino-2-((S)-3-methyl-morpholin-4-yl)-4′-trifluoromethyl-[4,5′]bipyrimidinyl-6-yl]-4-methyl-oxazolidin-2-one], the IC50 came to 240 nM.

Regarding `Nc1ncc(-c2cc(N3C[C@@H](CO)OC3=O)nc(N3CCOCC3)n2)c(C(F)(F)F)n1` [Example 14, (S)-3-(2′-Amino-2-morpholin-4-yl-4′-trifluoromethyl-[4,5′]bipyrimidinyl-6-yl)-5-hydroxymethyl-oxazolidin-2-one], the IC50 turned out to be 157 nM.

In the case of `C[C@H]1[C@H](CO)OC(=O)N1c1cc(-c2cnc(N)nc2C(F)(F)F)nc(N2CCOCC2)n1` [Example 15, (4S,5R)-3-(2′-Amino-2-morpholin-4-yl-4′-trifluoromethyl-[4,5′]bipyrimidinyl-6-yl)-5-hydroxymethyl-4-methyl-oxazolidin-2-one], the IC50 was 114 nM.

For the molecule `C[C@H]1CN(c2cc(-c3cnc(N)nc3C(F)(F)F)nc(N3CCOCC3)n2)C(=O)O1` [Example 16, (S)-3-(2′-Amino-2-morpholin-4-yl-4′-trifluoromethyl-[4,5′]bipyrimidinyl-6-yl)-5-methyl-oxazolidin-2-one], the IC50 stood at 160 nM.

With `[2H]C1([2H])OC([2H])([2H])C([2H])([2H])N(c2nc(-c3cnc(N)nc3C(F)(F)F)cc(N3C(=O)OC[C@@H]3C)n2)C1([2H])[2H]` [Example 17, (S)-3-(2′-amino-2-D8-morpholino-4′-(trifluoromethyl)-[4,5′-bipyrimidin]-6-yl)-4-methyloxazolidin-2-one], the IC50 was determined as 171 nM.

On to `C[C@H]1OC(=O)N(c2cc(-c3cnc(N)nc3C(F)(F)F)nc(N3CCOCC3)n2)[C@H]1CO` [Example 18, (4S,5R)-3-(2′-Amino-2-morpholin-4-yl-4′-trifluoromethyl-[4,5′]bipyrimidinyl-6-yl)-4-hydroxymethyl-5-methyl-oxazolidin-2-one], for which the IC50 was 88 nM.
